Results on two compounds are retold here after article PMC12203613 (Journal of Agricultural and Food Chemistry, 2025).

Assay type in all cases: biochemical
The target of assay [1] is T1, OsHPPD (4-hydroxyphenylpyruvate dioxygenase) (Oryza sativa, UniProt Q6H4V1).
T1 sequence (Q6H4V1 2-446): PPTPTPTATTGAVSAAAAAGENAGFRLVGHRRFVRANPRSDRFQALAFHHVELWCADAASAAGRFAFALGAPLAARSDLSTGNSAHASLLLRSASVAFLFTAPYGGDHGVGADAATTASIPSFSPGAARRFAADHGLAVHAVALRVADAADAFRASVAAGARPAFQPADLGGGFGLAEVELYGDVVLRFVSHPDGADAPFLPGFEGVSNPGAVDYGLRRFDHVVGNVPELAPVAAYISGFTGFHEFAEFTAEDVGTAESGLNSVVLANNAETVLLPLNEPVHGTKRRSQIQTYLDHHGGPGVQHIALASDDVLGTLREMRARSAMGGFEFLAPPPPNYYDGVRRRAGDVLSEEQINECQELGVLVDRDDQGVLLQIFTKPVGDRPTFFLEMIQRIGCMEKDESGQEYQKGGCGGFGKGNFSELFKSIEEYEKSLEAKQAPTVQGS
Put plainly: X-ray co-crystal structure at […] Å.

In assay [2] the target is T2, AtHPPD (4-hydroxyphenylpyruvate dioxygenase) (Arabidopsis thaliana, UniProt P93836).
T2 sequence (P93836 1-445): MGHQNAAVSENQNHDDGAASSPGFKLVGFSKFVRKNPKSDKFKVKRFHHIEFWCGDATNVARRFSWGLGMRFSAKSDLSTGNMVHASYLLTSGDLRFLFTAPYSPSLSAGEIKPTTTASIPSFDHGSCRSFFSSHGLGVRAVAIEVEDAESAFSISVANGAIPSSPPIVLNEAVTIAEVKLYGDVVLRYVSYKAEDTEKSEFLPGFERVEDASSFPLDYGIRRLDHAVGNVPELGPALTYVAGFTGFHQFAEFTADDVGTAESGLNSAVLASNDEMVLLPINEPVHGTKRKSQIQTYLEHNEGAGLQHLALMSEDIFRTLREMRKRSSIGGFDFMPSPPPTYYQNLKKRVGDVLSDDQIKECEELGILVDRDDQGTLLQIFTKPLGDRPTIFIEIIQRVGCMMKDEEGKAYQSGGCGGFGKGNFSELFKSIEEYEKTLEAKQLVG
The assay can be described thus: X-ray co-crystal structure at […] Å.

Assay [3] has as its target T1, OsHPPD (4-hydroxyphenylpyruvate dioxygenase). The assay can be described thus: coupled enzyme assay.
Assay [4] addresses T2, AtHPPD (4-hydroxyphenylpyruvate dioxygenase). The assay can be described thus: coupled enzyme assay.

As usually defined, the Ki is a measure of affinity in units of concentration, obtained from inhibition or displacement. A lower Ki goes with a stronger hold on the target.

SMILES strings stand for the structures.

Take `Cc1nnc(NC(=O)c2ccc(C(F)(F)F)n3c(CS(=O)(=O)C(C)C)nnc23)o1` [iptriazopyrid, 3-[(isopropylsulfonyl)-methyl]-N-(5-methyl-1,3,4-oxadiazol-2-yl)-5-(trifluoromethyl)-[1,2,4]-triazolo[4,3-a]-pyridine-8-carboxamide]: the Ki in assay [1] stood at 33.3 ± 3.3 nM; in assay [2] it was 24.3 ± 0.3 nM.

For the compound `CS(=O)(=O)c1ccc(C(=O)C2C(=O)CCCC2=O)c([N+](=O)[O-])c1` [mesotrione], the Ki was 26.5 ± 10.8 nM in assay [3] and 22.1 ± 4.5 nM in assay [4].
